{
  "source": "patent US10370436B2",
  "about": "“Anti-pseudomonas Psl binding molecules and uses thereof” (priority 2011, dated 2019)",
  "key": {"[1]": {"system": "Psl on in vivo passaged P. aeruginosa strains", "assay": "Flow cytometry of in vivo passaged P. aeruginosa", "type": "binding, Pseudomonas aeruginosa", "from_the_text": "For IgG expression, the VH and VL chains of selected antibodies were cloned into human IgG1 expression vectors, co-expressed in HEK293 cells, and purified by protein A affinity chromatography as described (Persic, L., et al., Gene 187, 9-18 (1997)). Human IgG1 antibodies made with the variable regions from these selected serotype independent phage were confirmed for P. aeruginosa specificity and prioritized for subsequent analysis by whole cell binding to dominant clinically relevant serotypes by FACS analysis (FIG. 1F), since this method is more stringent than ELISA. For the flow cytometry based binding assays mid-log phase P. aeruginosa strains were concentrated in PBS to an OD650 of 2.0. After incubation of antibody (10 μg/mL) and bacteria (˜1×10^7 cells) for 1 hr at 4° C. with shaking, washed cells were incubated with an ALEXA FLUOR […] goat anti-human IgG antibody (Invitrogen, Carlsbad, Calif.) for 0.5 hr at 4° C. Washed cells were stained with BACLIGHT™ green bacterial stain as recommended (Invitrogen, Carlsbad, Calif.). Samples were run on a LSR II flow cytometer (BD Biosciences) and analyzed using BD FacsDiva (v. 6.1.3) and FlowJo (v. 9.2; TreeStar).\nTo test if Psl expression in vivo is maintained, mice were injected intraperitoneally with P. aeruginosa isolates followed by harvesting of bacteria by peritoneal lavage four hours post-infection. The presence of Psl was analyzed with a control antibody and Cam-003 by flow cytometry as conditions for antibody binding are more stringent and allow for quantification of cells that are positive or negative for Psl expression. For ex vivo binding, bacterial inocula (0.1 ml) was prepared from an overnight TSA plate and delivered intraperitoneally to BALB/c mice. At 4 hr. following challenge, bacteria were harvested, RBCs lysed, sonicated and resuspended in PBS supplemented with 0.1% Tween-20 and 1% BSA. Samples were stained and analyzed as previously described in Example 1. […] Within the inocula, Psl was not detected for strain 6077 and was minimally detected for strains PAO1 (O5) and 6206 (O11-cytotoxic).\nThe level of Psl expression/accessibility on the surface of P. aeruginosa strains PAO1 and 6206 in the acute pneumonia model was also assessed. Bacteria prepared from overnight-incubated, confluent plates, as described above, were intranasally administered to BALB/c mice. At 4 and 24 hours post-infection, bacteria were recovered from the lungs by bronchoalveolar lavage. Samples were stained and analyzed as previously described in Example 1."}, "P. aeruginosa PAO10 LPS": {"system": "P. aeruginosa PAO10 LPS", "assay": "Endotoxemia (LPS challenge) model", "type": "in vivo, C57Bl/6 mice", "settings": "control mice dosed with unconjugated mAb", "description": "In particular, C57Bl/6 mice (10 per group) were dosed i.p. with mAb or PMB-mAb conjugate 6 h prior to challenge with P. aeruginosa PAO10 LPS (Sigma) and D-galactosamine. PMB control was dosed i.p. 2 h prior to challenge at 0.2 mg/kg and typically provides 80-100% protection. Control mice dosed with unconjugated CAM-003 all died within 18 h.\nTM conjugates were dosed at 45, 15 and 5 mg/kg."}},
  "data": [
    {"substance": "Cam-003: human IgG1 anti-Psl monoclonal antibody, VH SEQ ID NO: 1 and VL SEQ ID NO: 2", "values": [
      {"measurement": "staining of bacteria by flow cytometry", "setting": "[1]; 6206, bronchoalveolar lavage 4 hours post-infection, FIG. 5D", "result": "minimal"},
      {"measurement": "staining of bacteria by flow cytometry", "setting": "[1]; PAO1, bronchoalveolar lavage 4 hours post-infection, FIG. 5D", "result": "Strong Cam-003 staining"},
      {"measurement": "staining of bacteria by flow cytometry", "setting": "[1]; PAO1 and 6206, bronchoalveolar lavage 24 hours post-infection, FIG. 5E", "result": "strong Cam-003 staining"},
      {"measurement": "reactivity by flow cytometry after in vivo passage", "setting": "[1]; PAO1ΔpslA", "result": "unable to react with Cam-003"},
      {"measurement": "staining of bacteria by flow cytometry", "setting": "[1]; three wild type strains harvested by peritoneal lavage 4 hr after intraperitoneal challenge, FIG. 5C", "result": "strong Cam-003 staining"},
      {"measurement": "time within which all mice died", "setting": "P. aeruginosa PAO10 LPS", "result": "≤ 18", "unit": "h"}
    ]}
  ]
}
